Columns and labels:
piglets = assay: GILAX as feed additive for pig health after weaning; assay type: in vivo; settings: in-feed amoxicillin at 50 mg/kg/day for 21 days (positive control)
Staph. Aureus ATCC 29213 = assay: Antimicrobial activity, Minimum Inhibitory Concentration; assay type: cell-based, Staphylococcus aureus
Strep. Group B MCR1 27 = assay: as above; assay type: cell-based, Streptococcus Group B; settings: for Minimum Inhibitory Concentration: Strep. Group B MCR1 27
E. coli HS = assay: as above; assay type: cell-based, Escherichia Coli
V. cholerae 6239 = assay: as above; assay type: cell-based, Vibrio cholerae; settings: for Minimum Inhibitory Concentration: V. cholerae 6239
C. albicans ATCC 14053 = assay: as above; assay type: cell-based, Candida albicans; settings: for Minimum Inhibitory Concentration: C. albicans ATCC 14053
L. plantarum = assay: as above; assay type: cell-based, Lactobacillus plantarum; settings: for Minimum Inhibitory Concentration: L. plantarum
[1] = test system: Cl. perfringens ATCC 1124; assay type: cell-based; settings: Clostridium perfringens
Escherichia Coli = assay: Loss of filaments and of attachment to intestinal wall below the MIC; assay type: cell-based; settings: berberine at 5 µg/ml, much lower than MIC
Excerpt: (§1) This specific property of berberine offers an important aspect as a GI tract cleanser, since it can selectively remove pathogenic bacteria from the gut without affecting the inhabitations of the probiotic bacteria in GI tract, and without exerting excessive drug pressure on the bacteria, which may lead to drug resistance.

Lactobacilli = assay: Effect on probiotic bacteria below the MIC; assay type: cell-based; settings: berberine at 5 µg/ml
Excerpt: as §1

interleukine-12 (IL-12) = assay: Induction of interleukine-12
IL-8 = assay: Inhibition of IL-8 production
[2] = test system: hFUT1 mouse model of colitis; assay: Treatment of IBD on mouse model; assay type: in vivo; settings: Group 2: berberine chloride 13.5 mg/kg/day (o.s.)
Excerpt: hFUT1 mouse model of colitis was used. It provides insights into the pathogenesis of Inflammatory Bowel Disease (IBD). […] Immune dysfunction contributing to IBD in humans includes abnormal T cell reactivity and a loss of tolerance to gut bacteria. The compositions of Formula (1) and Formula (2) were given orally to mice to see the effectiveness on the altering the gut flora and lessening the severity of the colitis. The positive results indicated the compositions of Formula and Formula (2) may have a therapeutic role in human IBD.
A total five groups with ten mice per group were used as follows. • 1) Control (without treatment). • 2) Treated with compound of the Formula (1) (berberine chloride), 13.5 mg/kg/day (o.s.). • 3) Treated with compound of the Formula (2) (40% oxidized cellulose), 114 mg/kg/day (o.s.). • 4) Treated with composition of the Formula (1) (berberine chloride) (6.7 mg/kg/day) and the Formula (2) (40% oxidized cellulose) (57 mg/kg/day) (o.s.). • 5) Treated with composition of the Formula (1) (berberine chloride) (13.5 mg/kg/day) and the Formula (2) (114 mg/kg/day) (o.s.).

[3] = across the intestinal tissue; reference [13]; cited from earlier work
chickens = assay: Pilot chicken experiment (feed additives, growth and red combs)

SMILES: CC1(C)S[C@@H]2[C@H](NC(=O)[C@H](N)c3ccc(O)cc3)C(=O)N2[C@H]1C(=O)O [Amoxicillin, amoxicillin]
- health of piglets after weaning (piglets): all healthy
- need of injectable amoxicillin for sick piglets (piglets): no injectable amoxicillin was needed

SMILES: CC[C@H]1OC(=O)[C@H](C)[C@@H](O[C@H]2C[C@@](C)(OC)[C@@H](O)[C@H](C)O2)[C@H](C)[C@@H](O[C@@H]2O[C@H](C)C[C@H](N(C)C)[C@H]2O)[C@](C)(O)C[C@@H](C)C(=O)[C@H](C)[C@@H](O)[C@]1(C)O [Erythromycin, reference compound]
- Minimum Inhibitory Concentration (Staph. Aureus ATCC 29213; Staph. Aureus ATCC 29213): <0.625 µg/mL
- Minimum Inhibitory Concentration (Strep. Group B MCR1 27): <0.625 µg/mL
- Minimum Inhibitory Concentration (E. coli HS): >10 µg/mL
- Minimum Inhibitory Concentration (V. cholerae 6239): >10 µg/mL
- Minimum Inhibitory Concentration (C. albicans ATCC 14053): >10 µg/mL
- Minimum Inhibitory Concentration (L. plantarum): <0.625 µg/mL

SMILES: COc1ccc2cc3[n+](cc2c1OC)CCc1cc2c(cc1-3)OCO2.[Cl-] [berberine chloride]
- inhibition of pathogenic bacteria (in words) (Staph. Aureus ATCC 29213; Staphylococcus aureus): selectively inhibits
- Minimum Inhibitory Concentration (Strep. Group B MCR1 27): 62.5 µg/mL
- inhibition of pathogenic bacteria (in words) (Strep. Group B MCR1 27; Streptococcus Group B): selectively inhibits
- Minimum Inhibitory Concentration (E. coli HS): >500 µg/mL
- Minimum Inhibitory Concentration (V. cholerae 6239): 125 µg/mL
- inhibition of pathogenic bacteria (in words) (V. cholerae 6239; Vibrio cholerae): selectively inhibits
- Minimum Inhibitory Concentration (C. albicans ATCC 14053): 62.5 µg/mL
- inhibition of pathogenic bacteria (in words) (C. albicans ATCC 14053; Candida albicans): selectively inhibits
- inhibition of pathogenic bacteria (in words) [1]: selectively inhibits
- Minimum Inhibitory Concentration (L. plantarum): 500 µg/mL
- inhibition of beneficial bacteria (probiotics) (in words) (L. plantarum; Lactobacillus plantarum, at <500 µg/ml): does not inhibit
- effect on filaments and attachment on the wall of intestine (Escherichia Coli): lost their filaments and were unable to attach on the wall of intestine
- effect on probiotic bacteria (Lactobacilli): did not affect
- induction of interleukine-12 (IL-12) (interleukine-12 (IL-12)): could induce
- inhibition of the production of IL-8 (IL-8): inhibit the production of IL-8
- Survival rate after 56 days treatment [2]: 5/10
- apparent permeability coefficient (Papp) [3]: ~10^−7 cm/s
- Growth rate compared to that of the control on day 36 (chickens; Group A: 50 ppm berberine chloride in feed): 106.36% (p = 0.05)
- Red Combs (Number of red comb/total number of chickens) (chickens; Group A: 50 ppm berberine chloride in feed, Day 14 (start of additive)): 0/5
- Red Combs (Number of red comb/total number of chickens) (chickens; Group A: 50 ppm berberine chloride in feed, Day 17): 1/5
- Red Combs (Number of red comb/total number of chickens) (chickens; Group A: 50 ppm berberine chloride in feed, Day 21): 1/5
- Red Combs (Number of red comb/total number of chickens) (chickens; Group A: 50 ppm berberine chloride in feed, Day 24): 3/5
- Red Combs (Number of red comb/total number of chickens) (chickens; Group A: 50 ppm berberine chloride in feed, Day 26): 3/5
- Red Combs (Number of red comb/total number of chickens) (chickens; Group A: 50 ppm berberine chloride in feed, Day 32): 4/5
- Red Combs (Number of red comb/total number of chickens) (chickens; Group A: 50 ppm berberine chloride in feed, Day 36): 4/5
- Growth rate compared to that of the control on day 36 (chickens; Group B: 10 ppm berberine chloride in feed): 101.79%
- Red Combs (Number of red comb/total number of chickens) (chickens; Group B: 10 ppm berberine chloride in feed, Day 14 (start of additive)): 0/5
- Red Combs (Number of red comb/total number of chickens) (chickens; Group B: 10 ppm berberine chloride in feed, Day 17): 0/5
- Red Combs (Number of red comb/total number of chickens) (chickens; Group B: 10 ppm berberine chloride in feed, Day 21): 2/5
- Red Combs (Number of red comb/total number of chickens) (chickens; Group B: 10 ppm berberine chloride in feed, Day 24): 2/5
- Red Combs (Number of red comb/total number of chickens) (chickens; Group B: 10 ppm berberine chloride in feed, Day 26): 3/5
- Red Combs (Number of red comb/total number of chickens) (chickens; Group B: 10 ppm berberine chloride in feed, Day 32): 4/5
- Red Combs (Number of red comb/total number of chickens) (chickens; Group B: 10 ppm berberine chloride in feed, Day 36): 5/5
- residue found in the meat of chickens (chickens; after feeding as feed additive): no residue

— patent publication US8927565B2, “Compositions for veterinary and medical applications” (priority 2003, dated 2015)
